These results are taken from patent US7351726B2, “Substituted oxadiazolidinediones” (Wyeth, priority 2003, dated 2008).

The target of one data set is human PAI-1 (Homo sapiens, UniProt P05121). As to the kind of experiment: Assay for determining IC50 of inhibition of PAI-1 (tPA-coated plate, antibody detection of active PAI-1). Format: binding. The conditions noted are these: active human PAI-1 bound to tPA-coated plate; pH 7.5; compound 1-50 μM. As to the method:
This assay is based upon the non-SDS dissociable interaction between tPA and active PAI-1. Assay plates are initially coated with human tPA (10 μg/ml). Substituted oxadiazolidinedione of the present invention are dissolved in DMSO at 10 mM, then diluted with physiologic buffer (pH 7.5) to a final concentration of 1-50 μM. WAY compounds are incubated with human PAI-1 (50 ng/ml) for 15 minutes at room temperature. The tPA-coated plate is washed with a solution of 0.05% Tween 20 and 0.1% BSA, then the plate is blocked with a solution of 3% BSA. An aliquot of the substituted oxadiazolidinedione/PA-1 solution is then added to the tPA-coated plate, incubated at room temperature for 1 hour, and washed. Active PAI-1 bound to the plate is assessed by adding an aliquot of a 1:1000 dilution of the 33B8 monoclonal antibody against human PAI-1, and incubating the plate at room temperature for 1 hour (Molecular Innovations, Royal Oak, Mich.). […] The plate is incubated 45 minutes at room temperature, and color development is determined at OD405nm. The quantitation of active PAI-1 bound to tPA at varying concentrations of substituted oxadiazolidinedione is used to determine the IC50. Results are analyzed using a logarithmic best-fit equation. The assay sensitivity is 5 ng/ml of human PAI-1 as determined from a standard curve ranging from 0-100 ng/ml.

The target of data set [1] is T1, recombinant human plasminogen activator inhibitor-1 (PAI-1) (Homo sapiens, UniProt P05121).
T1 construct: purchased Molecular Innovations, Royal Oak, Mich
T1 sequence (P05121 24-402): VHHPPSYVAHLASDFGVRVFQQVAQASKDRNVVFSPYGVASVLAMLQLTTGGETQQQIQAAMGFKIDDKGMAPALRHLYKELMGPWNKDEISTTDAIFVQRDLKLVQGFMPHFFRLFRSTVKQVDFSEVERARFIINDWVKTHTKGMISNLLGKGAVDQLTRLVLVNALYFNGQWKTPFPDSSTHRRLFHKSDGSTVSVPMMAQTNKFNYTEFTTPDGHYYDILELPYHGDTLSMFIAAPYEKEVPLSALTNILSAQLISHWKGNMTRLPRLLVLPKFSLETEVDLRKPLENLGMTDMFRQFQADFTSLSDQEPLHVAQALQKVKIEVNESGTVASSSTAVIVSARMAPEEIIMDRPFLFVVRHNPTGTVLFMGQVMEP
Description: Primary screen for PAI-1 inhibition (chromogenic tPA activity assay). The conditions noted are these: 100 μM compound; 140 nM PAI-1, 70 nM tPA; pH 6.6. Type of data set: biochemical. On the procedure: Test compounds are dissolved in DMSO at a final concentration of 10 mM, then diluted 100× in physiologic buffer. The inhibitory assay is initiated by the addition of the substituted oxadiazolidinedione (1-100 μM final concentration, maximum DMSO concentration of 0.2%) in a pH 6.6 buffer containing 140 nM recombinant human plasminogen activator inhibitor-1 (PAI-1; Molecular Innovations, Royal Oak, Mich.). Following a 1 hour incubation at room temperature, 70 nM of recombinant human tissue plasminogen activator (tPA) is added, and the combination of the substituted oxadiazolidinedione, PAI-1 and tPA is incubated for an additional 30 minutes. Following the second incubation, Spectrozyme-tPA (American Diagnostica, Greenwich, CT), a chromogenic substrate for tPA, is added and absorbance read at 405 nm at 0 and 60 minutes. Relative PAI-1 inhibition is equal to the residual tPA activity in the presence of WAY and PAI-1. Control treatments include the complete inhibition of tPA by PAI-1 at the molar ratio employed (2:1), and the absence of any effect of the substituted oxadiazolidinedione on tPA alone.

Chain of human PAI-1 (P05121 24-402): as above

In the case of `CC/C(=C/Cn1oc(=O)[nH]c1=O)c1ccc2c(Cc3ccccc3)c(CC)oc2c1` [Compound 1, Z-2-[-3-(3-Benzyl-2-ethyl-benzofuran-6-yl)-pent-2-enyl]-[1,2,4]oxadiazolidine-3,5-dione], the melting point – broadly, the temperature of the solid-liquid transition – was 118 to 120 °C. Also, the IC50 (commonly the concentration that inhibits the measured activity by half) at human PAI-1 amounted to 9.3 µM.
On to `CC/C(=C\Cn1oc(=O)[nH]c1=O)c1ccc2c(Cc3ccccc3)c(CC)oc2c1` [Compound 2, E-2-[-3-(3-Benzyl-2-ethyl-benzofuran-6-yl)-pent-2-enyl]-[1,2,4]oxadiazolidine-3,5-dione], for which, in data set [1], the inhibition (usually the share of the control response that was lost under treatment) at 100 µM came to 39%.
